Legend:
Format in all cases: in vivo
[1] = tested on: acaricide resistant citrus red mites; assay: Effect on Citrus Red Mite (spray on mandarin orange leaves); settings: 31 ppm, emulsifiable concentrate of Formulation Example 2 sprayed, 10 female adults, 25° C., 65% humidity
Description: Effect on Citrus Red Mite
10 female adults of acaricide resistant citrus red mites were inoculated onto leaves of a mandarin orange placed on dishes, onto which each of liquid agents, diluted with water so as to adjust the respective concentration of the chemical compounds to 31 ppm according to the formulation of the emulsifiable concentrate shown in the aforementioned Formulation Example 2, was sprayed by using a rotating sparge tower. After they were left in a thermostatic chamber at 25° C. in 65% humidity for 3 days, and were then removed from the dishes, eggs laid for 3 days were investigated whether they could grow to adults or not on the eleventh day. As the results, the following chemical compounds killed 100% of the adults. 1-13, 1-15, 1-22, 1-27, 1-45, 1-54, 1-59, 1-63, 1-66, 1-69, 1-71, 1-72, 1-75, 1-80, 1-88, 1-89, 1-92, 1-93, 1-94, 1-97, 1-98, 1-100, 1-102, 1-105, 1-108, 1-133, 1-136, 1-142, 1-153, 1-181, 1-183, 1-186, 1-187, 1-188, 1-189, 1-190, 1-191,

army worms = assay: Effect on Army Worm (artificial feed test); settings: 10 μg of compound on 0.2 ml artificial feed, second instar, 25° C., 5 days
Description: Test feeds were prepared by filling plastic test tubes (capacity of 1.4 ml) with 0.2 ml of a commercial artificial feed (Insecta LFS, manufactured by Nosan Corporation). Each of 1% chemical compound solutions was prepared by using DMSO (containing 0.5% tween 20), which was then dropped into the surface of the feed in amount of 10 μg of the respective chemical compounds. 2 army worms, each of which was in the second instar, were inoculated into each of the test tubes, which were then sealed by their plastic caps. After they were left at 25° C. for 5 days, the rate of killed army worms and their feed consumptions were investigated. The test was repeated twice. […] 1-8, 1-9, 1-13, 1-15, 1-17, 1-22, 1-23, 1-27, 1-39, 1-45, 1-46, 1-59, 1-69, 1-72, 1-74, 1-75, 1-79, 1-80, 1-83, 1-95, 1-97, 1-981-100, 1-105, 1-108, 1-114, 1-133, 1-140, 1-147, 1-153, 1-165, 1-166, 1-181, 1-182, 1-183, 1-184, 1-187, 1-189, 1-190,

[2] = tested on: organophosphorous agent resistant two-spotted spider mites; assay: Effect on Two-spotted Spider Mite (spray on kidney bean leaves); settings: 125 ppm, water dispersible powder of Formulation Example 1 sprayed, 17 female adults, 25° C., 65% humidity, 3 days
How it was run: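 Kidney bean first leaves bearing 17 adult female organophosphate-resistant mites were sprayed with a water-dispersible powder formulation at 125 ppm. Held 3 days at 25 °C, 65% humidity, then adult mortality scored; run in duplicate.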

Compound	killed ... of the adults (eggs laid for 3 days investigated whether they could grow to adults on the eleventh day) [1]	killed 100% of the army worms, or inhibited their feed consumptions, in comparison with a solvent control area, to 10% or less (effective) (army worms)	rate of killed adults [2]
COCOCc1cc(C(F)(F)F)ccc1OC1CCN(c2ccc(C(F)(F)F)cn2)CC1C (mixture of isomers) [1-183]	100%	effective	100%
CCCOc1cc(C(F)(F)F)ccc1O[C@H]1CCN(c2ccc(C(F)(F)F)cn2)C[C@H]1C (relative stereo) [1-97, cis-3-methyl-4-[2-propoxy-4-(triphloromethyl)phenoxy]-1-[5-(trifluoromethyl)-2-pyridyl]piperidine]	100%	effective	100%
Fc1cc(C(F)(F)F)ccc1OC1CCN(c2ccc(C(F)(F)F)cn2)CC1 [1-8]		effective	100%
Fc1ccc(OC2CCN(c3ccc(C(F)(F)F)cn3)CC2)cc1C(F)(F)F [1-9]		effective	100%
FC(F)(F)c1ccc(N2CCC(Oc3ccc(C(F)(F)F)cc3Cl)CC2)nc1 [1-13]	100%	effective	100%
FC(F)(F)c1ccc(N2CCC(Oc3ccc(Cl)c(C(F)(F)F)c3)CC2)nc1 [1-15, 4-[4-chloro-3-(trifluoromethyl)phenoxy]-1-[5-(trifluoromethyl)-2-pyridyl]-piperidine]	100%	effective	100%
FC(F)(F)c1ccc(N2CCC(Oc3c(Cl)cc(C(F)(F)F)cc3Br)CC2)nc1 [1-17]		effective	100%
FC(F)(F)c1ccc(N2CCC(Oc3ccc(C(F)(F)F)cc3Br)CC2)nc1 [1-22]	100%	effective	100%
FC(F)(F)c1ccc(N2CCC(Oc3ccc(Br)c(C(F)(F)F)c3)CC2)nc1 [1-23, 4-[4-bromo-3-(trifluoromethyl)phenoxy]-1-[5-(trifluoromethyl)-2-pyridyl]-piperidine]		effective	100%
FC(F)(F)c1ccc(N2CCC(Oc3ccc(C(F)(F)F)cc3I)CC2)nc1 [1-27]	100%	effective	100%
O=[N+]([O-])c1ccc(OC2CCN(c3ccc(C(F)(F)F)cn3)CC2)cc1C(F)(F)F [1-39, 4-[4-nitro-3-(trifluoromethyl)phenoxy]-1-[5-(trifluoromethyl)-2-pyridyl]-piperidine]		effective	
Cc1cc(C(F)(F)F)ccc1OC1CCN(c2ccc(C(F)(F)F)cn2)CC1 [1-45]	100%	effective	100%
Cc1cc(OC(F)(F)F)ccc1OC1CCN(c2ccc(C(F)(F)F)cn2)CC1 [1-46]		effective	100%
CCCc1cc(C(F)(F)F)ccc1OC1CCN(c2ccc(C(F)(F)F)cn2)CC1 [1-59]	100%	effective	100%
COCOCc1cc(C(F)(F)F)ccc1OC1CCN(c2ccc(C(F)(F)F)cn2)CC1 [1-69]	100%	effective	100%
C=CCc1cc(C(F)(F)F)ccc1OC1CCN(c2ccc(C(F)(F)F)cn2)CC1 [1-74]		effective	100%

Compound	killed ... of the adults (eggs laid for 3 days investigated whether they could grow to adults on the eleventh day) [1]	killed 100% of the army worms, or inhibited their feed consumptions, in comparison with a solvent control area, to 10% or less (effective) (army worms)	rate of killed adults [2]
FC(F)(F)c1ccc(N2CCC(Oc3cc(C(F)(F)F)cc(C(F)(F)F)c3)CC2)nc1 [1-79]		effective	100%
FC(F)(F)c1ccc(OC2CCN(c3ncc(C(F)(F)F)cc3Cl)CC2)cc1 [1-83]		effective	
CCCOc1cc(C(F)(F)F)ccc1OC1CCN(c2ccc(C(F)(F)F)cn2)CC1(C)C(=O)OCC (stereo not drawn) [1-95]		effective	
CC(C)(C)COc1cc(C(F)(F)F)ccc1OC1CCN(c2ccc(C(F)(F)F)cn2)CC1 [1-114]		effective	100%
FC(F)(F)c1ccc(N2CCC(Oc3ccc(C(F)(F)F)cc3OCCCl)CC2)nc1 [1-140]		effective	100%
FC(F)(F)Sc1ccc(OC2CCN(c3ccc(C(F)(F)F)cn3)CC2)cc1 [1-147]		effective	100%
FC(F)(F)c1cnc(N2CCC(Oc3c(Cl)cc(OCC=C(Cl)Cl)c(Cl)c3Cl)CC2)c(Cl)c1 [1-165]		effective	
FC(F)(F)c1ccc(N2CCC(Oc3c(Cl)cc(OCC=C(Cl)Cl)c(Cl)c3Cl)CC2)nc1 [1-166]		effective	
CCCOCc1cc(C(F)(F)F)ccc1OC1CCN(c2ccc(C(F)(F)F)cn2)CC1 [1-182]		effective	100%
COCOC(C)c1cc(C(F)(F)F)ccc1OC1CCN(c2ccc(C(F)(F)F)cn2)CC1 (stereo not drawn) [1-184]		effective	100%
Cc1coc(-c2cc(C(F)(F)F)ccc2O[C@@H]2[C@@H]3CC[C@H]2CN(c2ccc(C(F)(F)F)cn2)C3)n1 [5-261]	100%		100%
CC1(C)COC(c2cc(C(F)(F)F)ccc2O[C@@H]2[C@@H]3CC[C@H]2CN(c2ccc(C(F)(F)F)cn2)C3)N1 (stereo partly drawn) [5-262]	100%		100%
CCCOc1cc(C(F)(F)F)ccc1OC1C2CCCC1CN(c1ccc(C(F)(F)F)cn1)C2 (stereo not drawn) [7-82, 90-[2-propoxy-4-(trifluoromethyl)phenoxy]-3-[5-(trifluoromethyl)-2-pyridyl]-3-azabicyclo[3.3.1]nonane]	100%		100%
COCOc1cc(C(F)(F)F)ccc1OC1C2CCCC1CN(c1ccc(C(F)(F)F)cn1)C2 (stereo not drawn) [7-100, 9β-[2-methoxymethoxy-4-(trifluoromethyl)phenoxy]-3-[5-(trifluoromethyl)-2-pyridyl]-3-azabicyclo[3.3.1]nonane]	100%		100%
FC(F)(F)c1ccc(N2C[C@H]3CCC[C@@H](C2)[C@@H]3Oc2ccc(C(F)(F)F)cc2OCC2CC2)nc1 [7-103]	100%		100%
